Data: ChEMBL document CHEMBL4417627, “Dab2 inhibitors for the prevention and treatment of cystic fibrosis” (2017)

Tests used:
Assay type in all cases: cell-based
[1] = Toxicity in human CFBE cells assessed as reduction in cell viability incubated for 3 hrs by LDH assay
[2] = Toxicity in human CFBE cells assessed as reduction in cell viability at 5 to 100 uM incubated for 3 hrs by MTT assay
[3] = Toxicity in human CFBE cells assessed as reduction in cell viability at 5 to 100 uM incubated for 12 hrs by MTT assay
[4] = Toxicity in human CFBE cells assessed as reduction in cell viability incubated for 12 hrs by LDH assay
[5] = Toxicity in human CFBE cells assessed as reduction in cell viability at 100 uM incubated for 3 hrs by LDH assay relative to control 1% triton
[6] = Toxicity in human CFBE cells assessed as reduction in cell viability at 40 uM incubated for 24 hrs by LDH assay relative to control 1% triton

CC1(C)Cc2ccccc2-c2n[nH]c(=S)n21
Activity [1]: Non-Toxic
Activity [2]: Non-Toxic
Activity [3]: Non-Toxic
Activity [4]: Toxic
Activity [5]: <= 10%

CN1CCc2cccc3c2[C@@H]1Cc1ccc(O)c(O)c1-3.Cl
Activity [1]: Dose-dependent effect
Activity [2]: Non-Toxic
Activity [3]: Non-Toxic
Activity [4]: Dose-dependent effect

C[C@]12CC[C@@H]3c4cc(O)c(O)cc4CC[C@H]3[C@@H]1CC[C@@H]2O
Activity [1]: Dose-dependent effect
Activity [2]: Non-Toxic
Activity [6]: 20 to 40%
Activity [3]: Non-Toxic
Activity [4]: Dose-dependent effect
